Here are results for six compounds from patent publication US20070264349A1, “Nano-structured compositions and methods of making and using the same” (Novavax, Inc., priority 2006, published 2007).

For data set [1] the following is noted: cited from earlier work.
Data set [2] can be described thus: Particle size measurement (Coulter particle sizer LS230). The format is physicochemical. The conditions noted are these: for mean size of nanoemulsion droplets comprising the active ingredient: after high-pressure homogenization, 10,000 psi (Examples 1, 2, 4); for particle size of a significant portion / almost all of the particles: formulations comprising ethanol (Tables 5 and 6), FIG. 10, FIG. 11; for mean particle size of raw active ingredient: before particle size reduction. From the text: A Coulter particle sizer LS230 was used to measure particle size.

The mark [3] stands for this setting: after high-pressure homogenization (Examples 1, 4, 7).
[4] abbreviates: after high-pressure homogenization, 10,000 psi (Examples 5, 6, 7).

For the compound `CN1CCCC1c1cccnc1` (stereo not drawn) [Nicotine, S-3-(1-methyl-2-pyrrolidinyl) pyridine], the “solubility in water” value in data set [1] was “freely water-soluble”.

For `Nc1nc2c(ncn2COCCO)c(=O)[nH]1` [acyclovir, 2-amino-1,9-dihydro-9-[(2-hydroxyethoxy)methyl]-6H-purin-6-one], the “size below which 100% of the particles lie” value in data set [2] (setting [3]) is on record as “less than 3 microns”. For the same compound, in data set [2], the “mean size of nanoemulsion droplets comprising the active ingredient” value is 132 nm, the “particle size of a significant portion / almost all of the particles” value was “less than 0.1 microns” and the “mean particle size of raw active ingredient” value is listed as 54 μm. In addition, the “milled mean particle size” value in data set [2] (setting [4]) is “about 2 microns”. Further, in data set [2] (after particle size reduction (FIG. 2, FIG. 4)), the “size below which 100% of the particles lie” value is “less than 3 μm”. Further, the “particle size of a significant portion of the particles” value in data set [2] (formulation comprising N-methyl-pyrrolidinone (Table 4), FIG. 9, bimodal) is recorded as “less than 0.4 microns”. Besides, in data set [1], the “solubility in water” value is “moderately soluble”.

As for `NCCCC(O)(P(=O)(O)O)P(=O)(O)O` [alendronic acid], the “milled mean particle size” value in data set [2] (after high-pressure homogenization, 10,000 psi (Example 3)) is on record as “about 0.2 μm”. For the same compound, the “mean particle size of raw active ingredient” value in data set [2] is 190-210 μm.

Consider `C[C@]12CC[C@@H]3c4ccc(O)cc4CC[C@H]3[C@@H]1CC[C@@H]2O` [estradiol, estra-1,3,5(10)-triene-3,17β-diol], for which, in data set [2], the “mean size of nanoemulsion droplets comprising the active ingredient” value is on record as “about 93 nm” and the “mean particle size of raw active ingredient” value was “about 542 microns”.

As to `O=C(c1ccc(OCCN2CCCCC2)cc1)c1c(-c2ccc(O)cc2)sc2cc(O)ccc12` [raloxifene], the “size below which 100% of the particles lie” value in data set [2] (setting [3]) is “below 10 microns”. For the same compound, the “milled mean particle size” value in data set [2] (setting [4]) worked out at 2.79 microns. In data set [2], the “mean particle size of raw active ingredient” value is recorded as 15-30 μm. Further, the “solubility in water” value in data set [1] is recorded as “very slightly soluble”.

Regarding “[R—[R*,R*-(E)]]-cyclic(L-alanyl-D-alanyl-N-methyl-L-leucyl-N-methyl-L-leucyl-N-methyl-L-valyl-3-hydroxy-N, 4-dimethyl-L-2-amino-6-octenoyl-L-α-amino-butyryl-N-methylglycyl-N-methyl-L-leucyl-L-valyl-N-methyl-L-leucyl) [cyclosporine]”, in data set [2], the “particle size of a significant portion / almost all of the particles” value was “less than 1 microns”.
